Here are results for ten compounds from patent US12617779B2, “Self degradation-type CDK9 inhibitor prodrug and liposome encapsulating same” (Sumitomo Pharma Co., Ltd., priority 2021, dated 2026).

Series [1] in a line: Stability evaluation of liposome formulation under storage conditions (Experimental Example 5). To be noted: for Alvocidib content % in liposome formulation: liposome formulation stored at 5° C.; for Change of Alvocidib content in liposome formulation: 5° C. The format is physicochemical. The procedure: For Example 1, Example 2, Example 5, Example 6, Example 7, Example 8, Comparative Example 7 and Comparative Example 9, the storage stability of liposome formulation was evaluated by the following method.
For the liposome formulations of Example 1, Example 2, Example 5, Example 6, Example 7, Example 8, Comparative Example 7, and Comparative Example 9, the liposome outer solution was replaced with 10% sucrose solution or 10 mM tartrate buffer solution/10% sucrose solution (pH 4) using Sephadex G-25 column (PD-10, manufactured by GE Healthcare) or a dialysis cassette (Slide-A-Lyzer G2 Dialysis Cassettes 20K MWCO, manufactured by Thermo Scientific) to remove unencapsulated compound. The liposome formulation was filtered through a 0.22 μm membrane filter, and stored at 5° C. After 0 to 18 months, the Alvocidib content in the liposome formulations of Example 1, Example 2, Example 5, Example 6, Example 7, Example 8, Comparative Example 7 and Comparative Example 9 was determined by HPLC.
The HPLC measurement conditions are as follows.

For series [2], the system named is A673 cells. Put plainly: Drug efficacy evaluation test using tumor-bearing mice transplanted with A673 cells (Experimental Example 8). The format is in vivo, BALB/c mice. To be noted: liposome formulation, tail vein, 50 mg/kg twice a week. The method, then: The liposome formulation encapsulating the compound of the present disclosure was treated and evaluated for anti-tumor effect and weight loss.
The liposome formulations were prepared as follows. The liposomes encapsulating the compounds of Example 1, Example 2, Example 5 and Example 6 were prepared in the same manner as in Experimental Example 4, respectively. The liposome outer solution was replaced with 10 mM tartrate buffer solution/10% sucrose solution (pH4.0) using a dialysis cassette (Slide-A-Lyzer G2 Dialysis Cassettes 20K MWCO, manufactured by Thermo Scientific), followed by filtration through a 0.22 μm membrane filter.
A673 cells (ATCC) were intradermally transplanted into 5-week-old BALB/c mice (CAnN.Cg-Foxnlnu/CrlCrlj, female, Charles River, Japan) around the ventral region at 3×10^6 cells/mouse. After confirming the engraftment of A673 cells 6 days after transplantation, they were divided into groups based on tumor diameter and body weight, and liposome formulations encapsulating Example 1, Example 2, Example 5 and Example 6 were administered through the tail vein at dose of 50 mg/kg twice a week, respectively. […] The tumor volume was measured over time from the start of administration, and the tumor volume reduction effect due to compound administration was evaluated. The tumor volume was calculated by the following formula using the short and long diameters of the tumor measured with an electronic caliper (Mitutoyo). For comparison in this test, an empty liposome solution prepared in the same manner as in Experimental Example 1 was used.
(§1) The anti-tumor effect was evaluated by comparing the control group administered with the empty liposome solution and the administration group of the compound of the present disclosure, and calculating T/C by the following formula.

Series [3] relates to EMT6 cells. Put plainly: Drug efficacy evaluation test using tumor-bearing mice transplanted with EMT6 cells (Experimental Example 7). The format is in vivo, BALB/c mice. To be noted: liposome formulation, tail vein, 25 mg/kg and 50 mg/kg twice a week. The procedure: The liposome formulation encapsulating the compound of the present disclosure was treated and evaluated for anti-tumor effect.
The liposome formulations were prepared as follows. The liposomes encapsulating the compounds of Example 3 and Example 4 were prepared in the same manner as in Experimental Example 4, respectively. The liposome outer solution was replaced with 10 mM tartrate buffer solution/10% sucrose solution (pH 4) using Sephadex G-25 column (PD-10, manufactured by GE Healthcare), followed by concentration by an ultrafiltration filter (AmiconUltra, 100K, 15 mL, manufactured by Merck), and filtration through a 0.22 μm membrane filter.
EMT6 cells (ATCC) were intradermally transplanted into 5-week-old BALB/c mice (BALB/cAnNCrlCrlj, female, Charles River, Japan) around the ventral region at 5×10^5 cells/mouse. […] The tumor volume was measured over time from the start of administration, and the tumor volume reduction effect due to compound administration was evaluated. The tumor volume was calculated by the following formula using the short and long diameters of the tumor measured with an electronic caliper (Mitutoyo). […]
as §1

Counter-ions that a name gives are not always drawn.

On to `C[C@H](N)C(=O)O[C@@H]1CN(C)CC[C@@H]1c1c(O)cc(O)c2c(=O)cc(-c3ccccc3Cl)oc12` [Comparative Example 7, reference compound], for which the “Alvocidib content % in liposome formulation” value in series [1] (0 month) turned out to be 0.56%; in series [1] (7 months), 23.2%. In series [1] (at 6 to 7 months), the “Change of Alvocidib content in liposome formulation” value (“Change of Alvocidib content” below) was “significant increase”.
With `CN1CC[C@H](c2c(O)cc(O)c3c(=O)cc(-c4ccccc4Cl)oc23)[C@H](OC(=O)[C@@H](N)CO)C1` [Comparative Example 9, reference compound], the “Alvocidib content % in liposome formulation” value in series [1] (0 month) came to 1.17%; in series [1] (6 months) it was 27.2%. The “Change of Alvocidib content” value in series [1] (at 6 to 7 months) is “significant increase”.
With `CCN(C[C@@H]1CCCCN1)C(=O)Oc1cc(O)c2c(=O)cc(-c3ccccc3Cl)oc2c1[C@H]1CCN(C)C[C@H]1O` [Example 1, 2-(2-chlorophenyl)-5-hydroxy-8-[(3S,4R)-3-hydroxy-1-methylpiperidin-4-yl]-4-oxo-4H-1-benzopyran-7-yl ethyl{[(2S)-piperidin-2-yl]methyl}carbamate ditrifluoroacetate], in series [2], the “Effect on tumor volume” value was “significantly inhibited the increase in tumor volume” and the “Weight loss of 10% or more compared to the start of administration” value was “without weight loss”.
Consider `CCN(C[C@H]1CCCCN1)C(=O)Oc1cc(O)c2c(=O)cc(-c3ccccc3Cl)oc2c1[C@H]1CCN(C)C[C@H]1O` [Example 2, 2-(2-chlorophenyl)-5-hydroxy-8-[(3S,4R)-3-hydroxy-1-methylpiperidin-4-yl]-4-oxo-4H-1-benzopyran-7-yl ethyl{[(2R)-piperidin-2-yl]methyl}carbamate], for which, in series [2], the “Effect on tumor volume” value is listed as “inhibited the increase in tumor volume” and the “Weight loss of 10% or more compared to the start of administration” value was “without weight loss”.
`CN1CC[C@H](c2c(OC(=O)N(C)C[C@@H]3CCCCN3)cc(O)c3c(=O)cc(-c4ccccc4Cl)oc23)[C@H](O)C1` [Example 3, 2-(2-chlorophenyl)-5-hydroxy-8-[(3S,4R)-3-hydroxy-1-methylpiperidin-4-yl]-4-oxo-4H-1-benzopyran-7-yl methyl{[(2S)-piperidin-2-yl]methyl}carbamate]: in series [3], the “Effect on tumor volume” value was “significantly inhibited the increase in tumor volume”.
The same measure, in the same setting: to `CN1CC[C@H](c2c(OC(=O)N(C)C[C@H]3CCCCN3)cc(O)c3c(=O)cc(-c4ccccc4Cl)oc23)[C@H](O)C1` [Example 4, 2-(2-chlorophenyl)-5-hydroxy-8-[(3S,4R)-3-hydroxy-1-methylpiperidin-4-yl]-4-oxo-4H-1-benzopyran-7-yl methyl{[(2R)-piperidin-2-yl]methyl}carbamate] belongs “significantly inhibited the increase in tumor volume”.
Turning to `CCCN(C[C@@H]1CCCCN1)C(=O)Oc1cc(O)c2c(=O)cc(-c3ccccc3Cl)oc2c1[C@H]1CCN(C)C[C@H]1O` [Example 5, 2-(2-chlorophenyl)-5-hydroxy-8-[(3S,4R)-3-hydroxy-1-methylpiperidin-4-yl]-4-oxo-4H-1-benzopyran-7-yl {[(2S)-piperidin-2-yl]methyl}propylcarbamate], the “Effect on tumor volume” value in series [2] was “inhibited the increase in tumor volume”.
As for `CCCN(C[C@H]1CCCCN1)C(=O)Oc1cc(O)c2c(=O)cc(-c3ccccc3Cl)oc2c1[C@H]1CCN(C)C[C@H]1O` [Example 6, 2-(2-chlorophenyl)-5-hydroxy-8-[(3S,4R)-3-hydroxy-1-methylpiperidin-4-yl]-4-oxo-4H-1-benzopyran-7-yl {[(2R)-piperidin-2-yl]methyl}propylcarbamate], in series [2], the “Effect on tumor volume” value is “inhibited the increase in tumor volume”.
As for `CCN(CC1CCCCN1)C(=O)Oc1cc(O)c2c(=O)cc(-c3ccccc3Cl)oc2c1[C@H]1CCN(C)C[C@H]1O` (stereo partly drawn) [Example 7, 2-(2-chlorophenyl)-5-hydroxy-8-[(3S,4R)-3-hydroxy-1-methylpiperidin-4-yl]-4-oxo-4H-1-benzopyran-7-yl ethyl[(piperidin-2-yl)methyl]carbamate dihydrochloride], the “Change of Alvocidib content” value in series [1] (after 15 months) is “hardly increased”.
Take `CN1CC[C@H](c2c(OC(=O)N(C)CC3CCCCN3)cc(O)c3c(=O)cc(-c4ccccc4Cl)oc23)[C@H](O)C1` (stereo partly drawn) [Example 8, 2-(2-chlorophenyl)-5-hydroxy-8-[(3S,4R)-3-hydroxy-1-methylpiperidin-4-yl]-4-oxo-4H-1-benzopyran-7-yl methyl[(piperidin-2-yl)methyl]carbamate]: the “Change of Alvocidib content” value in series [1] (after 18 months) is “hardly increased”.
